Laboratory results published in patent US9695155B2, “Herbicidal substituted pyrimidinyloxy benzene compounds” (E. I. DU PONT DE NEMOURS AND COMPANY, priority 2013, dated 2017).

Experiments:
[1] = tested on: barnyardgrass; experiment: Test A preemergence; assay type: in vivo, Echinochloa crus-galli
Summary of the method: (§1)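 Greenhouse pot test, loam/sand soil. Formulation: non-phytotoxic solvent mix plus surfactant. Pre: directed spray onto soil after sowing. Post: plants at 1–2 leaf, 2–10 cm. Rated visually vs untreated controls at ~10 d, 0 (no effect) to 100 (complete control).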

[2] = tested on: giant foxtail; experiment: Test A preemergence; assay type: in vivo, Setaria faberii
Summary of the method: as §1

[3] = tested on: pigweed; experiment: Test A preemergence; assay type: in vivo, Amaranthus retroflexus
Summary of the method: as §1

[4] = tested on: pigweed; experiment: Test A postemergence; assay type: in vivo, Amaranthus retroflexus; settings: Amaranthus retroflexus, post-emergence, 0 to 100 scale, 0 no effect, 100 complete control, read-out: Plant response rating, Pigweed
Summary of the method: as §1

[5] = tested on: sedge, umbrella; experiment: Test B flooded paddy test; assay type: in vivo, Cyperus difformis; settings: Cyperus difformis, Flood, 250 g ai/ha; 0 to 100 scale where 0 is no effect and 100 is complete control; read-out: Plant response rating, Sedge, Umbrella
Summary of the method: (§2)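 Flooded to 3 cm at the 2-leaf stage, pots received compound through the paddy water and were kept at that depth under greenhouse conditions. After 13–15 days, effect was rated by eye relative to controls, 0 = none and 100 = complete control.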

[6] = tested on: barnyardgrass; experiment: Test B flooded paddy test; assay type: in vivo, Echinochloa crus-galli; settings: Echinochloa crus-galli; Flood, 250 g ai/ha; 0 to 100 scale where 0 is no effect and 100 is complete control; read-out: Plant response rating, Barnyardgrass
Summary of the method: as §2

[7] = tested on: blackgrass; experiment: Test C postemergence; assay type: in vivo, Alopecurus myosuroides; settings: Alopecurus myosuroides, post-emergence
Summary of the method: (§3)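 Whole-plant greenhouse test with surfactant-containing solvent formulation, applied preemergence to sown loam–sand pots or postemergence to 2–18 cm plants. Scored by eye 13 to 15 days on, 0–100 scale.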

[8] = tested on: Italian ryegrass; experiment: Test C postemergence; assay type: in vivo, Lolium multiflorum
Summary of the method: as §3

[9] = tested on: corn; experiment: Test C postemergence; assay type: in vivo, Zea mays; settings: Zea mays, post-emergence
Description: Seeds of plant species selected from blackgrass (Alopecurus myosuroides), Italian ryegrass (Lolium multiflorum), wheat, winter (winter wheat, Triticum aestivum), galium (catchweed bedstraw, Galium aparine), corn (Zea mays), large (Lg) crabgrass (Digitaria sanguinalis), giant foxtail (Setaria faberii), johnsongrass (Sorghum halepense), lambsquarters (Chenopodium album), morningglory (Ipomoea coccinea), yellow nutsedge (Cyperus esculentus), pigweed (Amaranthus retroflexus), ragweed (common ragweed, Ambrosia elatior), soybean (Glycine max), barnyardgrass (Echinochloa crus-galli), oilseed rape (Brassica napus), waterhemp (common waterhemp, Amaranthus rudis), kochia (Kochia scoparia), wild oat (Avena fatua), surinam grass (Brachiaria decumbens), foxtail, green (green foxtail, Setaria viridis), goosegrass (Eleusine indica), bromegrass, downy (downy bromegrass, Bromus tectorum), nightshade (eastern black nightshade, Solanum ptycanthum), cocklebur (common cocklebur, Xanthium strumarium), cupgrass, woolly (woolly cupgrass, Eriochloa villosa), bermudagrass (Cynodon dactylon), sunflower, (common oilseed sunflower, Helianthus annuus), Russian thistle (Salsola kali), and velvetleaf (Abutilon theophrasti) were planted into a blend of loam soil and sand and treated preemergence with test chemicals formulated in a non-phytotoxic solvent mixture which included a surfactant.
At the same time, plants selected from these crop and weed species and also barley, winter (winter barley, Hordeum vulgare), windgrass (Apera spica-venti), chickweed (common chickweed, Stellaria media), deadnettle (henbit deadnettle, Lamium amplexicaule), and canarygrass (littleseed canarygrass, Phalaris minor) were planted in pots containing Redi-Earth® planting medium (Scotts Company, 14111 Scottslawn Road, Marysville, Ohio 43041) comprising spaghnum peat moss, vermiculite, wetting agent and starter nutrients and treated with postemergence applications of test chemicals formulated in the same manner. Plants ranged in height from 2 to 18 cm (1- to 4-leaf stage) for postemergence treatments. Treated plants and controls were maintained in a greenhouse for 13 to 15 days, after which time all species were compared to controls and visually evaluated. Plant response ratings, summarized in Table C, are based on a scale of 0 to 100 where 0 is no effect and 100 is complete control. A dash (-) response means no test result.

[10] = tested on: large (Lg) crabgrass; experiment: Test C postemergence; assay type: in vivo, Digitaria sanguinalis; settings: Digitaria sanguinalis, post-emergence
Summary of the method: as §3

[11] = tested on: giant foxtail; experiment: Test C postemergence; assay type: in vivo, Setaria faberii; settings: Setaria faberi, post-emergence
Summary of the method: as §3

[12] = tested on: johnsongrass; experiment: Test C postemergence; assay type: in vivo, Sorghum halepense
Summary of the method: as §3

[13] = tested on: chickweed; experiment: Test C postemergence; assay type: in vivo, Stellaria media; settings: Stellaria media, post-emergence
Summary of the method: as §3

[14] = 31 g ai/ha, postemergence, visual rating, scale 0 to 100 (0 no effect, 100 complete control), 13 to 15 days

## N#Cc1cccc(Oc2ncc(Cl)cn2)c1-n1cc(C(F)F)cn1 [Compound 253, 3-(5-chloropyrimidin-2-yl)oxy-2-[4-(difluoromethyl)-1H-pyrazol-1-yl]benzonitrile]
[1]; 125 g ai/ha
  Barnyardgrass plant response rating (0 to 100 scale, 0 is no effect, 100 is complete control): 100
[1]; Echinochloa crus-galli, pre-emergence, 240 h, 31 g ai/ha, 0 to 100 scale where 0 is no effect and 100 is complete control, visual, approximately 10 days, read-out: Plant response rating, Barnyardgrass
  pest or weed control at 31 g/ha: 50%
[2]; 125 g ai/ha
  Foxtail, Giant plant response rating (0 to 100 scale): 100
[2]; Setaria faberi, pre-emergence, 240 h, 31 g ai/ha, 0 to 100 scale where 0 is no effect and 100 is complete control, visual, approximately 10 days, read-out: Plant response rating, Foxtail, Giant
  pest or weed control at 31 g/ha: 70%
[3]; 125 g ai/ha
  Pigweed plant response rating (0 to 100 scale): 100
[3]; Amaranthus retroflexus, pre-emergence, 240 h, 31 g ai/ha, 0 to 100 scale where 0 is no effect and 100 is complete control, visual, approximately 10 days, read-out: Plant response rating, Pigweed
  pest or weed control at 31 g/ha: 100%
[4]; 31 g ai/ha
  pest or weed control at 31 g/ha: 90%
[4]; 125 g ai/ha
  pest or weed control at 125 g/ha: 100%
[5]
  pest or weed control at 250 g/ha: 85%
[6]
  pest or weed control at 250 g/ha: 40%
[7]; 16 g ai/ha, postemergence, 0 is no effect, 100 is complete control, read-out: Plant response rating (0 to 100), Blackgrass
  pest or weed control at 16 g/ha: 0%
[7]; 31 g ai/ha, postemergence, visual rating, scale 0 to 100 (0 no effect, 100 complete control), 13 to 15 days, read-out: Blackgrass plant response rating
  pest or weed control at 31 g/ha: 0%
[7]; 125 g ai/ha, postemergence, visual rating, scale 0 to 100 (0 no effect, 100 complete control), read-out: Plant response rating, Blackgrass
  pest or weed control at 125 g/ha: 10%
[7]; Postemergence, 62 g ai/ha, scale 0 to 100 (0 no effect, 100 complete control), 13 to 15 days, read-out: Plant response rating, Blackgrass
  pest or weed control at 62 g/ha: 0%
[8]; [14]
  Ryegrass, Italian plant response rating: 0
[8]; Lolium multiflorum, post-emergence, 16 g ai/ha, postemergence, 0 is no effect, 100 is complete control, read-out: Plant response rating (0 to 100), Ryegrass, Italian
  pest or weed control at 16 g/ha: 0%
[8]; Lolium multiflorum, post-emergence, 125 g ai/ha, postemergence, visual rating, scale 0 to 100 (0 no effect, 100 complete control), read-out: Plant response rating, Ryegrass, Italian
  pest or weed control at 125 g/ha: 0%
[8]; Lolium multiflorum, post-emergence, Postemergence, 62 g ai/ha, scale 0 to 100 (0 no effect, 100 complete control), 13 to 15 days, read-out: Plant response rating, Ryegrass, Italian
  pest or weed control at 62 g/ha: 0%
[9]; 16 g ai/ha, postemergence, 0 is no effect, 100 is complete control, read-out: Plant response rating (0 to 100), Corn
  plant injury at 16 g/ha: 5%
[9]; 31 g ai/ha, postemergence, visual rating, scale 0 to 100 (0 no effect, 100 complete control), 13 to 15 days, read-out: Corn plant response rating
  plant injury at 31 g/ha: 5%
[9]; 125 g ai/ha, postemergence, visual rating, scale 0 to 100 (0 no effect, 100 complete control)
  Corn plant response rating (crop injury, 0 = no effect, 100 = complete kill) at 125 g/ha: 25%
[9]; Postemergence, 62 g ai/ha, scale 0 to 100 (0 no effect, 100 complete control), 13 to 15 days
  Corn plant response rating (crop injury, 0 = no effect, 100 = complete kill) at 62 g/ha: 5%
[10]; 16 g ai/ha, postemergence, 0 is no effect, 100 is complete control, read-out: Plant response rating (0 to 100), Crabgrass, Large
  pest or weed control at 16 g/ha: 5%
[10]; 31 g ai/ha, postemergence, visual rating, scale 0 to 100 (0 no effect, 100 complete control), 13 to 15 days, read-out: Crabgrass, Large plant response rating
  pest or weed control at 31 g/ha: 5%
[10]; 125 g ai/ha, postemergence, visual rating, scale 0 to 100 (0 no effect, 100 complete control), read-out: Plant response rating, Crabgrass, Large
  pest or weed control at 125 g/ha: 20%
[10]; Postemergence, 62 g ai/ha, scale 0 to 100 (0 no effect, 100 complete control), 13 to 15 days, read-out: Plant response rating, Crabgrass, Large
  pest or weed control at 62 g/ha: 15%
[11]; 16 g ai/ha, postemergence, 0 is no effect, 100 is complete control, read-out: Plant response rating (0 to 100), Foxtail, Giant
  pest or weed control at 16 g/ha: 10%
[11]; 31 g ai/ha, postemergence, visual rating, scale 0 to 100 (0 no effect, 100 complete control), 13 to 15 days, read-out: Foxtail, Giant plant response rating
  pest or weed control at 31 g/ha: 45%
[11]; 125 g ai/ha, postemergence, visual rating, scale 0 to 100 (0 no effect, 100 complete control), read-out: Plant response rating, Foxtail, Giant
  pest or weed control at 125 g/ha: 20%
[11]; Postemergence, 62 g ai/ha, scale 0 to 100 (0 no effect, 100 complete control), 13 to 15 days, read-out: Plant response rating, Foxtail, Giant
  pest or weed control at 62 g/ha: 25%
[12]; [14]
  Johnsongrass plant response rating: 5
[12]; Sorghum halepense, post-emergence, 16 g ai/ha, postemergence, 0 is no effect, 100 is complete control, read-out: Plant response rating (0 to 100), Johnsongrass
  pest or weed control at 16 g/ha: 0%
[12]; Sorghum halepense, post-emergence, 125 g ai/ha, postemergence, visual rating, scale 0 to 100 (0 no effect, 100 complete control), read-out: Plant response rating, Johnsongrass
  pest or weed control at 125 g/ha: 10%
[12]; Sorghum halepense, post-emergence, Postemergence, 62 g ai/ha, scale 0 to 100 (0 no effect, 100 complete control), 13 to 15 days, read-out: Plant response rating, Johnsongrass
  pest or weed control at 62 g/ha: 5%
[13]; 16 g ai/ha, postemergence, 0 is no effect, 100 is complete control, read-out: Plant response rating (0 to 100), Chickweed
  pest or weed control at 16 g/ha: 60%
[13]; 31 g ai/ha, postemergence, visual rating, scale 0 to 100 (0 no effect, 100 complete control), 13 to 15 days, read-out: Chickweed plant response rating
  pest or weed control at 31 g/ha: 70%
[13]; 125 g ai/ha, postemergence, visual rating, scale 0 to 100 (0 no effect, 100 complete control), read-out: Plant response rating, Chickweed
  pest or weed control at 125 g/ha: 90%
[13]; Postemergence, 62 g ai/ha, scale 0 to 100 (0 no effect, 100 complete control), 13 to 15 days, read-out: Plant response rating, Chickweed
  pest or weed control at 62 g/ha: 90%
